Patent publication US20230150970A1, “AMINOPYRIMIDINE DERIVATIVES AND THEIR USE AS ARYL HYDROCARBON RECEPTOR MODULATORS” (DONG-A ST CO., LTD., priority 2020, published 2023)
pEC50, pIC50: −log10 of the molar value. Where two headings read alike, the source gives them in different places.

Tests used:
[1] = molecular target: T1, AhR (Homo sapiens, UniProt P35869)
T1 sequence (P35869 11-848): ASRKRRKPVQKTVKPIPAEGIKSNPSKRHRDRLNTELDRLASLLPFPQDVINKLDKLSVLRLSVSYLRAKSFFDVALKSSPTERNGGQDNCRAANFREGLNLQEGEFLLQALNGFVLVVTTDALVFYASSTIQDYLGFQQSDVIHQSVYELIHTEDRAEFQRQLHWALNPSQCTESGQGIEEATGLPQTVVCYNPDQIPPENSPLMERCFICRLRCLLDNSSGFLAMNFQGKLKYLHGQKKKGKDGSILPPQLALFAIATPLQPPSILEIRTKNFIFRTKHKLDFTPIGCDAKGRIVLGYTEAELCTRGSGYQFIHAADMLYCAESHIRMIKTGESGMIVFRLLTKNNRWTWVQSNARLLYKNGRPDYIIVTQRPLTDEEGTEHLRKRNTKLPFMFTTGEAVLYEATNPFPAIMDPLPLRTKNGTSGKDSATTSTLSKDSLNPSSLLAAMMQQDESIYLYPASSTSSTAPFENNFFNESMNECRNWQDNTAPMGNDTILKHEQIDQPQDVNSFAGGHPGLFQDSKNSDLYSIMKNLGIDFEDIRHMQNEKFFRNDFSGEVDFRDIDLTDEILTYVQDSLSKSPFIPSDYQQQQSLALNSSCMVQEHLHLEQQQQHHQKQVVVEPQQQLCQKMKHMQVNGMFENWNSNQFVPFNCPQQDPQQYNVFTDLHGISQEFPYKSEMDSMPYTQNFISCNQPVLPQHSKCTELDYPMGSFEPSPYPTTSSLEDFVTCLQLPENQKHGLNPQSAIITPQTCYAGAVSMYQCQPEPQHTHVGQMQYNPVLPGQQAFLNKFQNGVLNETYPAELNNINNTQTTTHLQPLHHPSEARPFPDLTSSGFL
Description: (§1) In Vitro XRE-Luciferase Reporter Assay (In Vitro Assay 1, 2, 3) AhR activation leads the induction of target gene expression such as CYP1A1 and CYPIB1 by AhR binding to AhR-responsive DNA elements also known as xenobiotics responsive elements (XREs). The assay for measuring AhR activity herein is the luciferase assay using cell lines transfected with luciferase reporter plasmid containing XREs at the upstream of the reporter gene. Cells transfected with XRE-luciferase reporter (XRE-Luc), plasmid drive luciferase activity reflecting activation and inhibition of AhR in the cells. […] Kynurenine (an endogenous AhR agonist), was used to stimulate cells to test antagonistic properties of the compounds. The half-maximal inhibitory concentration (IC50), or half-maximal effective concentration (EC50), value was calculated using nonlinear regression (four parameters), with Prism8.0 software (GraphPad).
(§2) In Vitro Assay 1: Antagonism in Human Cell Line
(§3) HepG2 (human hepatoma cell line) cell line with a XRE-luciferase reporter either transiently or stably (Invivogen) were plated in complete medium and incubated at 37° C. in a CO2 incubator. After 24 hours, cells were treated with kynurenine (50* or 200 μM) alone (negative control) or with test compounds for 6 hours. Luciferase activity was measured with a commercial kit such as the Promega Luciferase kit or Invivogen Luciferase kit. Relative luciferase activity (Firefly/Nano-Luc) was used to calculate IC50 values. […] (IC50 values are grouped as A, B, C and D, whereby A: IC50<0.01 μM; B: 0.01<IC50<0.1 μM; C: 0.1<IC50<1.0 μM; D: IC50>1.0 μM)

[2] = molecular target: T2, AhR (Mus musculus, UniProt P30561); experiment: In Vitro Assay 2: XRE-luciferase reporter assay, antagonism in mouse cell line (Hepa1c1c7); format: cell-based; settings: 6 hours, read-out: Assay 2: AhR-Luc Mouse Antagonism (IC50)
T2 sequence (P30561 1-848): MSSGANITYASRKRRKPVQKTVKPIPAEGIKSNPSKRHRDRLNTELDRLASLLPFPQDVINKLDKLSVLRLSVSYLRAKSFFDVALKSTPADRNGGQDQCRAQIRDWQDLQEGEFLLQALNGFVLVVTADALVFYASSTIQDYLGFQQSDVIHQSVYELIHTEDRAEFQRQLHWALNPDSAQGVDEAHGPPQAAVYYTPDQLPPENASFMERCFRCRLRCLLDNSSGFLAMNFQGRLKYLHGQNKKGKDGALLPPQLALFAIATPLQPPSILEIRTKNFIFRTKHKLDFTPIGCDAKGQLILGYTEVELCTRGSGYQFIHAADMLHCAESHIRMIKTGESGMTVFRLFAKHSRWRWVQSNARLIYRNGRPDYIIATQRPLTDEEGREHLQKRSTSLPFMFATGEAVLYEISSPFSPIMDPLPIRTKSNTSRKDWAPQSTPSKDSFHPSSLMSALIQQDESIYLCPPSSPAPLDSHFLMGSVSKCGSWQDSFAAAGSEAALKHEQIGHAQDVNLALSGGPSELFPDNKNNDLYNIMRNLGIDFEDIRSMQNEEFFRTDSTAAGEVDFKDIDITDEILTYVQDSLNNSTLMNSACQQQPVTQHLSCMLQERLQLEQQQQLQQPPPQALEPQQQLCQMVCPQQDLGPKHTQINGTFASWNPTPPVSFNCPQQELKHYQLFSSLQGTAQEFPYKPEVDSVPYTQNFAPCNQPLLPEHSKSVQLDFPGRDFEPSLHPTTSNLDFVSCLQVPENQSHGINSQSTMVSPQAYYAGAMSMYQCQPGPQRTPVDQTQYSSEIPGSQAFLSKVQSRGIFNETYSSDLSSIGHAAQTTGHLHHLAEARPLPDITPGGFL
Description: In Vitro Assay 2: Antagonism in Mouse Cell Line
Hepa1c1c7 (murine liver cancer cell line) cells co-transfected with XRE-Luc and Nano-Luc plasmids were plated in complete medium and incubated overnight at 37° C. in a CO2 incubator. Following incubation, cells were treated with AhR activating ligands such as kynurenic acid, kynurenine (#) with or without test compounds for 6 hours.

[3] = molecular target: T1, AhR; experiment: In Vitro Assay 4: endogenous AhR activity assay (CYP1A1 and CYP1B1 mRNA, qRT-PCR, HepG2 cells)
Description: In Vitro Assay 4: Endogenous AhR Activity Assay
HepG2 cells were seeded in 12-well plate (3×10^5 cells/well). A day after seeding, the cells were treated with TCDD (10 nM) alone or with compounds (123 nM) for 4 hours. Total RNA was extracted using Trizol (Thermo Fisher Scientific). cDNA synthesis and quantitative RT-PCR (qRT-PCR) assays were performed using PrimeScript™ RT Master Mix (TAKARA) and TB Green™ Premix Ex Taq™ II (TAKARA) in accordance with manufacturer's instruction. For the measurement of endogenous AhR activity, relative mRNA levels of CYP1A1 and CYP1B1 were quantitated relative to β-actin mRNA by the comparative Ct (ΔΔCt) method. The percent inhibitions were calculated according to:

[4] = molecular target: T1, AhR; experiment: In Vitro Assay 1: XRE-luciferase reporter assay, antagonism in human cell line (HepG2); settings: Assay 1: AhR-Luc Human Antagonism (IC50, nM), 6 hours
Description: as §1, §2, §3

[5] = molecular target: T1, AhR; experiment: In Vitro Assay 3: XRE-luciferase reporter assay, agonism in human cell line (HepG2); format: cell-based; parameters: endogenous in cells; host or cells: HepG2; settings: HepG2, tryptophan free medium, 6 hours, no agonist, read-out: Assay 3: AhR-Luc Human Agonism (EC50)
Description: In Vitro Assay 3: Agonism in Human Cell Line
HepG2 (human hepatoma cell line) cells co-transfected with XRE-Luc and Nano-Luc plasmids were plated in tryptophan free medium containing 1% of dialyzed fetal bovine serum and incubated overnight at 37° C. in a CO2 incubator. After 24 hours, cells were treated for 6 hours with test compounds or not. […] As a positive control, cells were incubated with TCDD.

[6] = unmarked values: AhR activating ligand kynurenic acid
[7] = HepG2, read-out: CYP1A1 (% Inhibition)
[8] = HepG2, read-out: CYP1B1 (% Inhibition)
[9] = unmarked values: kynurenine 200 μM
[10] = values marked #: AhR activating ligand kynurenine

Row | Compound | pIC50 [1] | pIC50 [2, 6] | inhibition at 0.123 µM [3, 7] [%] | inhibition at 0.123 µM [3, 8] [%] | IC50 [4, 9] [nM] | pEC50 ([5]; class in brackets of the cell) | pEC50 ([5]; number of the cell) | pIC50 [2, 10] | IC50 ([4]; values marked *: kynurenine 50 μM) [nM]
1 | 4-(4-chlorophenyl)-2-(pyridin-3-yl)-6-(4-(pyrimidin-2-yl)piperazin-1-yl)pyrimidine [Example 90] | 7.00 to 8.00 | – | – | – | – | – | – | – | –
2 | O[C@H]1CCN(c2cc(-c3ccc(Cl)cc3)nc(-c3cccnc3)n2)C1 [Example 137, (S)-1-(6-(4-chlorophenyl)-2-(pyridin-3-yl)pyrimidin-4-yl)pyrrolidin-3-ol] | – | > 8.00 | 91.6 | 97.7 | < 10 | < 5.00 | < 4.52 | – | –
3 | OCC1CCN(c2cc(-c3ccc(C(F)(F)F)cc3)nc(-c3cccnc3)n2)CC1 [Example 226, (1-(2-(pyridin-3-yl)-6-(4-(trifluoromethyl)phenyl)pyrimidin-4-yl)piperidin-4-yl)methanol] | – | – | 108 | 101 | < 10 | < 5.00 | < 4.52 | 7.00 to 8.00 | –
4 | O[C@@H]1CN(c2cc(-c3ccc(Cl)cc3)nc(-c3cccnc3)n2)C[C@@H]1F [Example 235, (3R,4S)-1-(6-(4-chlorophenyl)-2-(pyridin-3-yl)pyrimidin-4-yl)-4-fluoropyrrolidin-3-ol] | – | – | 106 | 101 | – | – | 5.45 | 7.00 to 8.00 | < 10
5 | O=S(=O)(CCO)N1CCN(c2cc(-c3ccc(Cl)cc3)nc(-c3cccnc3)n2)CC1 [Example 239, 2-((4-(6-(4-chlorophenyl)-2-(pyridin-3-yl)pyrimidin-4-yl)piperazin-1-yl)sulfonyl)ethan-1-ol] | – | > 8.00 | 108 | 101 | < 10 | < 5.00 | < 4.52 | – | –
6 | OCC1CCN(c2cc(-c3ccc(N4CCOCC4)cc3)nc(-c3cccnc3)n2)CC1 [Example 268, (1-(6-(4-morpholinophenyl)-2-(pyridin-3-yl)pyrimidin-4-yl)piperidin-4-yl)methanol] | – | – | 102 | – | < 10 | < 5.00 | < 4.52 | > 8.00 | –
7 | O[C@H]1CCN(c2cc(-c3ccc(Cl)cc3)nc(-c3cncc(F)c3)n2)C1 [Example 323, (S)-1-(6-(4-chlorophenyl)-2-(5-fluoropyridin-3-yl)pyrimidin-4-yl)pyrrolidin-3-ol] | – | – | 108 | 99.8 | < 10 | < 5.00 | < 4.52 | 7.00 to 8.00 | –
8 | O[C@H]1CCN(c2cc(-c3ccc(C(F)(F)F)cc3)nc(-c3cncc(F)c3)n2)C1 [Example 327, (S)-1-(2-(5-fluoropyridin-3-yl)-6-(4-(trifluoromethyl)phenyl)pyrimidin-4-yl)pyrrolidin-3-ol] | – | – | 106 | 101 | < 10 | – | 5.76 | 7.00 to 8.00 | –
9 | O=C(CCO)N1CCN(c2cc(-c3ccc(Cl)cc3)nc(-c3cccnc3)n2)CC1 [Example 352, 1-(4-(6-(4-chlorophenyl)-2-(pyridin-3-yl)pyrimidin-4-yl)piperazin-1-yl)-3-hydroxypropan-1-one] | – | – | 87.2 | – | < 10 | < 5.00 | < 4.52 | 7.00 to 8.00 | –
